Reference: US9844546B2, “Antibody against human HIF hydroxylase” (OXFORD UNIVERSITY INNOVATION LIMITED, priority 2001, dated 2017)
Where no end group is shown, it is not given here. [ ]: non-standard residue; d: D form. The star is where a group is joined. Biotin = O=C1N[C@H]2[C@H](CS[C@H]2CCCCC(=O)*)N1; Hyp = O=C(O)[C@@H]1C[C@@H](O)CN1

Columns and labels:
C. elegans = experiment: Immunoblot of ceHIF (HIF-1) in extracts of treated worms; assay type: in vivo; settings: 200 μM in liquid media, 6 or 16 hrs
Description: Immunoblots of ceHIF levels in extracts of c. elegans were carried out to monitor regulation by hypoxia and iron chelation. Firstly, the oxygen dependence of protein induction was analysed. Worms were grown on plates in bell jars flushed with air (N), or with oxygen/balance nitrogen having an oxygen concentration of 5%, 1%, 0.5% or 0.1% for 18 hrs. A graded increase in protein level was seen as the oxygen level was reduced below 5% with the highest level of induction at 0.5 and 0.1% oxygen concentration. The time course of protein induction was then studied. Worms were grown in bell jars flushed with a 0.1% oxygen/balance nitrogen mixture for 0, 4, 8, 16 or 24 hrs before preparation of extracts. […] The time course of protein decay on re-oxygenation was then assessed. Worms were grown in bell jars flushed with air (N) or a 0.1% oxygen/balance nitrogen mixture. Extracts were made either immediately, or after 4 and 8 minutes of re-oxygenation. Decay of ceHIF protein was very rapid on re-oxygenation. […] A time course RNAse protection assay showing cehif mRNA levels in worms exposed to 0.1% oxygen/balance nitrogen for 0, 4, 8, 16 and 24 hrs was carried out. No induction of ceHIF mRNA by hypoxia was seen. […] Induction by iron chelation was also studied in C. elegans. […]

EGLN-2 and EGLN-3 = experiment: Modification and pVHL binding assay with reticulocyte lysate programmed with EGLN-2 or EGLN-3; assay type: biochemical, human; settings: desferrioxamine 200 μM, cobaltous chloride 200 μM
From the text: Protein containing HIF-1 sequence (amino acids 549-582) was generated in a reticulocyte in vitro transcription translation reaction in the presence of 100 micromolar desferrioxamine, retrieved and then exposed to […] translates containing the putative enzymes as described above. These proteins contain the critical proline (564) which can be modified by hydroxylation and which enables recognition by von Hippel Lindau tumour suppressor protein (pVHL).
The modification of the HIF-1 sequence was assayed by the binding of the HIF-1 to radiolabelled pVHL, generated by in vitro transcription and translation of a pcDNA3 vector containing the human wild type pVHL open reading frame in a rabbit reticulocyte lysate in the presence of ^35S-methionine.
Modification and pVHL binding assays were performed as described above. Rabbit reticulocyte lysate was programmed with pcDNA3 based plasmids containing no insert, an insert encoding the full open reading frame of the human homologue of C. elegans Egl-9 known as EGLN-2, or an insert encoding the full open reading frame of the human homologue known as EGLN-3. Modification was performed in the absence of additives, in the presence of oxalylglycine, oxalylglycine plus 2-oxoglutarate, 200 μM desferrioxamine or 200 μM cobaltous chloride.

HIF-α/pVHL interaction = experiment: Interaction of HIF-1α and pVHL.HA reticulocyte IVTTs, anti-HA co-immunoprecipitation; assay type: biochemical, human; settings: 100 μM added to the HIF-1α IVTT
Description: ^35S-Methionine labelled […] subunits and pVHL.HA were produced separately by IVTT (in vitro transcription and translation) in reticulocyte lysates. IVTTs were performed under different conditions, mixed, and assayed for interaction by anti-HA co-immunoprecipitation. These in vitro assays allowed analysis of the HIFα/pVHL interaction using the recombinant proteins.
Labelled HIF-1α and pVHL.HA were generated separately in reticulocyte lysates (IVTT), in the presence or absence of Co (II), desferrioxamine, or Fe(II). Lysates were mixed in various combinations, and interactions assayed by anti-HA immunoprecipitation.
• 1. G. L. Semenza, Genes Dev 14, 1983-91. (2000). • 2. N. V. Iyer, et al., Genes Dev. 12, 149-162 (1997). • 3. E. Maltepe, J. V. Schmidt, D. Baunoch, C. A. Bradfield, M. C. Simon, Nature 386, 403-407 (1997). • 4. G. L. Wang, B.-H. Jiang, E. A. Rue, G. L. Semenza, Proc. Natl. Acad. Sci. USA 92, 5510-5514 (1995). • 5. S. Salceda, J. Caro, J. Biol. Chem. 272, 22642-22647 (1997). • 6. L. E. Huang, J. Gu, M. Schau, H. F. Bunn, Proc. Natl. Acad. Sci. USA 95, 7987-7992 (1998). • 7. M. S. Wiesener, et al., Blood 92, 2260-2268 (1998). • 8. P. H. Maxwell, et al., Nature 399, 271-275 (1999). • 9. K. Iwai, et al., Proc. Natl. Acad. Sci. USA 96, 12436-12441 (1999). • 10. J. Lisztwan, G. Imbert, C. Wirbelauer, M. Gstaiger, W. Krek, Genes Dev 13, 1822-33 (1999). • 11. M. E. Cockman, et al., J Biol Chem (2000). • 12. M. Ohh, et al., Nat Cell Biol 2, 423-7. (2000). • 13. T. Kamura, et al., Proc Natl Acad Sci USA 97, 10430-5. (2000). • 14. K. Tanimoto, Y. Makino, T. Pereira, L. Poellinger, Embo J 19, 4298-309. (2000). • 15. M. A. Goldberg, S. P. Dunning, H. F. Bunn, Science 242, 1412-1415 (1988). • 16. G. L. Wang, G. L. Semenza, Blood 82, 3610-3615 (1993). • 17. G. L. Semenza, Cell 98, 281-284 (1999). • 18. Hypoxia (<0.1% oxygen) was obtained in a workstation with O2, CO2 and temperature control (Ruskinn Technologies, Leeds, UK). For hypoxic harvest, buffers were preincubated in the chamber overnight. […]

VHL-1 = target: T1, VHL-1 (Caenorhabditis elegans, UniProt Q19213); experiment: Peptide blocking of HIF-1 capture by HA.VHL-1 and capture of native VHL-1 by biotinylated peptides; assay type: binding, C. elegans; settings: for blocking of capture of pretreated HIF-1 by HA.VHL-1: peptide 1 μM
T1 construct: made in house; host or cells: TNT rabbit reticulocyte lysate, IVTT
T1 sequence (Q19213 1-174): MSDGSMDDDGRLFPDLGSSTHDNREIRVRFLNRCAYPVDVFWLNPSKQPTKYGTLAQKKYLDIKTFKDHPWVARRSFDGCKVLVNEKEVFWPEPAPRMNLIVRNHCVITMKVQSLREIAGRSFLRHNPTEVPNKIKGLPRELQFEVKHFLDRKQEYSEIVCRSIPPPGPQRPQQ
Description: For peptide blocking experiments peptides (final conc. 1 μM) were pre-incubated with VHL-1 for 15 min before addition to the interaction.
To test whether hydroxylation of the critical P621 residue in C. elegans HIF-1 could indeed promote binding to VHl-1, we synthesised N-terminal biotinylated peptides corresponding to residues 607-634 of C. elegans HIF-1 that contained either a proline (B28Pro) or a (2S, 4R)-trans-hydroxyproline residue (B28Hyp) at position 621.
Furthermore. […] Finally, to test the importance of prolyl hydroxylation in regulating C. elegans HIF-1 in vivo we exposed worms to the cell-penetrating prolyl hydroxylase inhibitor, dimethyloxalylglycine.

Compound: c1ccc(-c2ccccn2)nc1 [2′, 2′ dipyrridyl, reference compound]
- ceHIF protein level (C. elegans): striking Induction of ceHIF

Compound: CC(=O)N(O)CCCCCNC(=O)CCC(=O)N(O)CCCCCNC(=O)CCC(=O)N(O)CCCCCN [desferrioxamine]
- Enzyme activity (modification of HIF-1 to VHL binding form) (EGLN-2 and EGLN-3): diminished
- capture of HIF-1α by pVHL.HA (HIF-α/pVHL interaction): greatly diminished capture

Compound: B28Hyp: N-terminal biotinylated peptide, residues 607-634 of C. elegans HIF-1, (2S, 4R)-trans-hydroxyproline at position 621 (Biotin-DDLQWEEPDLSCLA[Hyp]FVDTYDMMQMDEG)
- blocking of capture of pretreated HIF-1 by HA.VHL-1 (VHL-1): blocked capture
- capture of native VHL-1 from worm extracts (VHL-1; wild type but not vhl-1 mutant worms): captured immunodetectable native VHL-1

Compound: B28Pro: N-terminal biotinylated peptide, residues 607-634 of C. elegans HIF-1, proline at position 621 (Biotin-DDLQWEEPDLSCLAPFVDTYDMMQMDEG)
- blocking of capture of pretreated HIF-1 by HA.VHL-1 (VHL-1): not
